The nature of data set [1]: Fluorescence emission maximum and fluorescence quantum efficiency of the dyes. It is filed as physicochemical. On the procedure: Representative novel dyes of this invention are listed in Table I below in reference to the illustrated structure above. Of these, Compound 4 is preferred for use in biological studies and assays because it can be used at a pH of 7 or less. In Table I, the "fluorescence quantum efficiency" was determined by procedures described by Birks in Standardization in Spectrophotometry and Luminescence Measurements, Mielenz et al (Eds.), Nat. Bureau of Standards Special Publication 466 (1977).

The test system of data set [2] is carboxyl esterase, Type I. The experiment in a line: Determination of an esterase enzyme by hydrolysis of the hydrolyzable substrate (fluorometer). It is filed as biochemical. The note with it: final enzyme activity 48 I.U., HEPES pH 7.8, excitation 540 nm, emission 610 nm. On the procedure: The hydrolyzable compound used is represented by the structure: [drawing 11]
A test solution was prepared from the following: the hydrolyzable substrate (50 μl of a solution of 0.1 mg/0.5 ml of methanol), 0.05 molar HEPES buffer (3 μl, pH 7.8) and the esterase enzyme carboxyl esterase, Type I (50 μl). A Control solution was similarly prepared by omitting the enzyme. Fluorescence of the released fluorescent dye was measured with a commercially available fluorometer when the enzyme was first added to the test solution and at various times thereafter (excitation at 540 nm and emission at 610 nm). The Control solution was similarly evaluated at the indicated times.

`Cc1cc(O)cc2c1cc1c3c(cccc32)C(=O)C=C1` [Compound 1]: in data set [1] (in methanol), the “Emission (λmax)” value is recorded as 542 nm and the “Fluorescence Quantum Efficiency” value came out at 0.4.

As to `Cc1cc(O)cc2c1cc1c3c(cccc32)C(=O)C=C1` [Compound 2], the “Emission (λmax)” value in data set [1] (in 5:1 water/methanol) was 635 nm. The “Fluorescence Quantum Efficiency” value in data set [1] (solvent in 5:1 water/methanol) came out at 0.18.

On to `Cc1cc(O)c(Cl)c2c1cc1c3c(cccc32)C(=O)C=C1` [Compound 3], for which, in data set [1] (in methanol), the “Emission (λmax)” value came out at 629 nm and the “Fluorescence Quantum Efficiency” value is reported as 0.55.

For the molecule `Cc1cc(O)c(Cl)c2c1cc1c3c(cccc32)C(=O)C=C1` [Compound 4], the “Emission (λmax)” value in data set [1] (in 5:1 water/methanol) was 628 nm. In addition, the “Fluorescence Quantum Efficiency” value in data set [1] (solvent in 5:1 water/methanol) was found to be 0.42.

Take `Cc1cc(OC(=O)N(C)c2ccccc2)c(Cl)c2c1cc1c3c(cccc32)C(=O)C=C1` [Compound 5]: the “Emission (λmax)” value in data set [1] (in 5:1 water/methanol) is 550 nm. Besides, in data set [1] (solvent in 5:1 water/methanol), the “Fluorescence Quantum Efficiency” value is on record as 0.01.

With `Cc1cc(N2CCCC2)cc2c1cc1c3c(cccc32)C(=O)C=C1` [Compound 6], in data set [1] (in methanol), the “Emission (λmax)” value is reported as 655 nm and the “Fluorescence Quantum Efficiency” value was determined as 0.52.

In the case of `CCCCOC(=O)c1cc(O)cc2c1cc1c3c(cccc32)C(=O)C=C1` [Compound 7], in data set [1] (in methanol), the “Emission (λmax)” value was 525 nm and the “Fluorescence Quantum Efficiency” value was found to be 0.4.

Consider `CCCCOC(=O)c1cc(O)cc2c1cc1c3c(cccc32)C(=O)C=C1` [Compound 8], for which, in data set [1] (in 5:1 water/methanol), the “Emission (λmax)” value is reported as 630 nm. Also, the “Fluorescence Quantum Efficiency” value in data set [1] (solvent in 5:1 water/methanol) is 0.3.

`CCCCOC(=O)c1cc(O)c(Cl)c2c1cc1c3c(cccc32)C(=O)C=C1` [Compound 9]: in data set [1] (in 5:1 water/methanol), the “Emission (λmax)” value is recorded as 625 nm. The “Fluorescence Quantum Efficiency” value in data set [1] (solvent in 5:1 water/methanol) was determined as 0.56.

Consider `CC(=O)Oc1cc(C)c2cc3c4c(cccc4c2c1Cl)C(=O)C=C3` [Example 6], for which the “Δ Relative Fluorescence (Minutes) 0” value in data set [2] (0 minutes) was 8.1. The “Δ Relative Fluorescence (Minutes) 1” value in data set [2] (1 minute) stood at 31.5. Besides, the “Δ Relative Fluorescence (Minutes) 2” value in data set [2] (2 minutes) worked out at 32.1. In addition, the “Δ Relative Fluorescence (Minutes) 5” value in data set [2] (5 minutes) is 33.3.
